The term IC50 denotes the concentration that inhibits the measured activity by half.

The first assay has as its system human T-bet. The assay can be described thus: HEKT-bet-luc assay (normalized). Format: cell-based. The settings on record: Homo sapiens, HEK293, 24 h, normalized HEKT-bet-luc IC50; engineered HEK cells, T-box responsive luciferase reporter, compound 24 hours; normalized to reference ER-819544; read-out: IC50. On the procedure:
HEKT-bet-luc assay: This assay measures a T-bet dependent reporter (luciferase) activity in engineered HEK cells that express a human T-bet and a T-box responsive element driving luciferase reporter. HEKT-bet cells were plated at 2×10^4/well in 96-well plate and compound was added into cell culture for 24 hours. Luciferase activity was measured by adding 50 μl of Steady-Glo reagent (Promega) and samples were read in Victor V reader (PerkinElmer). The activity of compound was determined by comparing compound treated samples to non-compound treated vehicle controls. The IC50 values were calculated utilizing a maximum value corresponding to the amount of luciferase in the absence of a test compound and a minimum value corresponding to a test compound value obtained at maximum inhibition.
Determination of Normalized HEKT-bet IC50 values: Compounds were assayed in microtiter plates. Each plate included a reference compound which was ER-819544. The un-normalized IC50 value for a particular compound was divided by the IC50 value determined for the reference compound in the same microtiter plate to provide a relative potency value. The relative potency value was then multiplied by the established potency of the reference compound to provide the normalized HEKT-bet IC50 value. […] The IC50 values provided herein were obtained using this normalization method.
A general note: A reporter such as luciferase makes a cellular process visible.
With `COc1cc2c(c(OC)c1)C(C)(C)C=C1N(C2)C(=O)N(C)C12CCN(Cc1ccc3ccccc3c1)CC2` [compound 819627], the half-inhibitory concentration (IC50) worked out at 1600 nM.

`COc1cccc(CN2CCC3(CC2)C2=CC(C)(C)c4c(cc(OC)cc4OC)CN2C(=O)N3C)c1` [compound 819628]: the IC50 is 360 nM.

As to `COc1cc2c(c(OC)c1)C(C)(C)C=C1N(C2)C(=O)N(C)C12CCN(Cc1ccccc1)CC2` [compound 819629], the IC50 is 840 nM.

As to `COc1cc2c(c(OC)c1)C(C)(C)C=C1N(C2)C(=O)N(C)C12CCN(C/C=C/c1ccccc1)CC2` [compound 819634], the concentration for half-maximal inhibition (IC50) was 1150 nM.

Regarding `COc1cc2c(c(OC)c1)C(C)(C)C=C1N(C2)C(=O)N(C)C12CCN(Cc1cccc3ccccc13)CC2` [compound 819637], the IC50 was 734 nM.

As for `CCN1C(=O)N2Cc3cc(OC)cc(OC)c3C(C)(C)C=C2C12CCN(Cc1ccccc1)CC2` [compound 819640], the IC50 stood at 542 nM.

On to `COCCN1C(=O)N2Cc3cc(OC)cc(OC)c3C(C)(C)C=C2C12CCN(Cc1ccccc1)CC2` [compound 819641], for which the IC50 worked out at 98 nM.

In the case of `COc1cc2c(c(OC)c1)C(C)(C)C=C1N(C2)C(=O)N(CCO)C12CCN(Cc1ccccc1)CC2` [compound 819642], the half-inhibitory concentration (IC50) was determined as 365 nM.

As to `CCN1C(=O)N2Cc3cc(OC)cc(OC)c3C(C)(C)C=C2C12CCN(Cc1cccc(OC)c1)CC2` [compound 819646], the IC50 came out at 184 nM.

Take `COCCN1C(=O)N2Cc3cc(OC)cc(OC)c3C(C)(C)C=C2C12CCN(Cc1cccc(OC)c1)CC2` [compound 819647]: the 50% inhibitory concentration (IC50) turned out to be 64 nM.

For the compound `COc1cccc(CN2CCC3(CC2)C2=CC(C)(C)c4c(cc(OC)cc4OC)CN2C(=O)N3CCO)c1` [compound 819648], the IC50 turned out to be 147 nM.

`COc1cccc(CN2CCC3(CC2)C2=CC(C)(C)c4c(cc(OC)cc4OC)CN2C(=O)N3Cc2ccccc2)c1` [compound 819649]: the concentration for half-maximal inhibition (IC50) is 4940 nM.

For the compound `COc1cccc(CN2CCC3(CC2)C2=CC(C)(C)c4c(cc(OC)cc4OC)CN2C(=O)N3Cc2ccc(-n3cccn3)cc2)c1` [compound 819650], the IC50 amounted to 669 nM.

In the case of `CC=C1C=C2N(Cc3cc(OC)cc(OC)c31)C(=O)N(CC)C21CCN(Cc2cc(OC)cc(OC)c2)CC1` [compound 819651], the IC50 amounted to 110 nM.

Consider `CCC=C1C=C2N(Cc3cc(OC)cc(OC)c31)C(=O)N(CC)C21CCN(Cc2cc(OC)cc(OC)c2)CC1` [compound 819652], for which the concentration for half-maximal inhibition (IC50) came to 270 nM.

Turning to `COCCN1C(=O)N2Cc3cc(OC)ccc3C(C)(C)C=C2C12CCN(Cc1cc(OC)cc(OC)c1)CC2` [compound 819655], the IC50 is 204 nM.

For the compound `COc1cc(CN2CCC3(CC2)C2=CC(C)(C)c4c(cc(OC)cc4OC)CN2C(=O)N3CCO)cc(OC)c1` [compound 819657], the IC50 turned out to be 65 nM.

As for `COc1cc(CN2CCC3(CC2)C2=CC(C)(C)c4c(cc(OC)cc4OC)CN2C(=O)N3C)cc(OC)c1` [compound 819658], the half-maximal inhibitory concentration (IC50) turned out to be 141 nM.

As for `COCCN1C(=O)N2Cc3cc(OC)cc(OC)c3C(C)(C)C=C2C12CCN(Cc1cc(C)cc(C)c1)CC2` [compound 819659], the half-maximal inhibitory concentration (IC50) amounted to 68 nM.

Take `COc1cc(CN2CCC3(CC2)C2=CC(C)(C)c4c(cc(OC)cc4OC)CN2C(=O)N3Cc2ccccc2)cc(OC)c1` [compound 819662]: the 50% inhibitory concentration (IC50) was 898 nM.

Turning to `COc1cc(CN2CCC3(CC2)C2=CC(C)(C)c4c(cc(OC)cc4OC)CN2C(=O)N3Cc2ccc(-n3cccn3)cc2)cc(OC)c1` [compound 819663], the 50% inhibitory concentration (IC50) came to 637 nM.

As for `COCCN1C(=O)N2Cc3cc(F)ccc3C(C)(C)C=C2C12CCN(Cc1cc(OC)cc(OC)c1)CC2` [compound 819672], the half-inhibitory concentration (IC50) came to 877 nM.

As for `COCCN1C(=O)N2Cc3cc(OC)cc(OC)c3CC=C2C12CCN(Cc1cc(OC)cc(OC)c1)CC2` [compound 819673], the 50% inhibitory concentration (IC50) is 102 nM.

Turning to `COCCN1C(=O)N2Cc3ccccc3C(C)(C)C=C2C12CCN(Cc1cc(OC)cc(OC)c1)CC2` [compound 819677], the half-maximal inhibitory concentration (IC50) stood at 1020 nM.

Staying with this assay, now noted: normalized HEKT-bet-luc IC50; engineered HEK cells, T-box responsive luciferase reporter, compound 24 hours; normalized to reference ER-819544; read-out: IC50.
On to `COc1cc(CN2CCC3(CC2)C2=CC(C)(C)c4c(cc(OC)cc4OC)CN2C(=O)N3CCO)cc(OC)c1` [compound 819657], for which the IC50 turned out to be 124 nM.

The values above are taken from US20090233906A1, “IMIDAZOAZEPINONE COMPOUNDS” (priority 2006, published 2009).
